Assay results published in patent US6809091B1, “Substances capable of inducing apoptosis” (Takara Bio Inc., priority 1998, dated 2004).

How the values were obtained:
[1] = system: human promyelocytic leukemia HL-60; test: MTT method: cell growth suppressing / apoptosis-inducing activity; type: cell-based; conditions: for apoptosis-inducing activity / cancer cell growth suppressing activity: HL-60, MTT method of Example 1, 48 hours; for cancer cell growth suppressing activity and apoptic body formation: HL-60, MTT method of Example 4-(2), sample in 50% ethanol, 16 hours
Experimental: Heated and non-heated substances of each of them were sterilized by a membrane filter of 0.22 μm to prepare samples for the apoptosis-inducing activity. Those samples were diluted with aseptic distilled water to an extent of 2-, 4-, 8-, 16- and 32-fold, their activity for suppressing the cell growth to the human promyelocytic leukemia HL-60 was measured as follows and their intensity or the apoptosis-inducing activity was compared.
Thus, 10 μl of each of the diluted solutions or 10 μl of aseptic distilled water were placed in a well of a 96-well microtiter plate. Then 90 μl of an RPMI 1640 medium (manufactured by Nissui) containing 10% of fetal bovine serum (manufactured by Gibco) which contained 5000 HL-60 cells (ATCC CCL240) were added thereto and an incubation was carried out at 37° C. for 48 hours in the presence of 5% carbon dioxide gas. After observing the shape of the cells under an optical microscope, 10 μl of a phosphate-buffered aqueous saline solution containing 5 mg/ml of 3-(4,5-dimethylthiazol-2-yl)-2,5-diphenyltetrazolium bromide (MTT; manufactured by Sigma), an incubation was continued for four hours more and state of growth of cells and formation of formazan produced in the cells were observed under a microscope. Further, 100 μl of 2-propanol containing 0.04N HCl were added thereto followed by well stirring and the absorbance at 590 nm was measured and used as a degree of growth of cells (an MTT method).
The solvent of the fraction was appropriately evaporated to substitute with a 50% aqueous solution of ethanol and the activity for suppressing the growth of cancer cells was measured by an MTT method mentioned in Example 1 except that the sample was diluted to a two-fold series using a 50% aqueous solution of ethanol and 2 μl of each of the diluted solutions or 2 μl of a 50% aqueous solution of ethanol were placed in a well of a flat-bottom 96-well microplate. Time for incubation was 16 hours.

HL-60 cells [2] = test: observation of apoptosis under an optical microscope; type: cell-based, human; conditions: HL-60, 24 hours
Experimental: (1) HL-60 cells (ATCC CCL-240) incubated at 37° C. in an RPMI 1640 medium (manufactured by BioWhittaker) containing 10% of fetal bovine serum (manufactured by JRH) treated at 56° C. for 30 minutes were suspended in an RPMI 1640 medium to make the concentration 2.5×10^5 cells/5 ml.
To 5 ml of this suspension were added 10 μl of 12.5 mM, 25 mM, 50 mM or 100 mM of a 70% ethanolic solution of 4,5-dihydroxy-2-pentenal prepared in Example 6-(1), 0.05 mM, 0.5 mM, 5 mM or 50 mM of a 70% ethanolic solution of 4-hydroxy-2-cyclopenten-1-[…] prepared in Example 6-(1), 5 mM, 10 mM or 20 mM of a 70% ethanolic solution of 4-(9-adeninyl)-2-cyclopenten-1-one prepared in Example 4-(4), 2.5 mM, 5 mM, 15 mM or 25 mM of a 70% ethanolic solution of 4-(9-guaninyl)-2-cyclopenten-1-one prepared in Example 4-(5), 75 mM, 150 mM or 300 mM of a 70% ethanolic solution of 1,5-epoxy-1-hydroxy-3-penten-2-one prepared in Example 5-(2) or 5 mM, 25 mM or 50 mM of a 70% ethanolic solution of 2-(trans-3,4-dihydroxy-1-butenyl)-4-(trans-2-formylvinyl)-1,3-dioxolane prepared in Example 6-(2) followed by incubating at 37° C. in the presence of 5% carbon dioxide gas for 24 hours.
Incidentally, such phenomena were not noted in the incubated cells to which […] of 70% ethanolic solution were added used as a control.

HL-60 cells [3] = test: Trypan Blue staining, survival rate; type: cell-based; conditions: Homo sapiens, HL-60, 24 hours, concentration where survival rate becomes 50%, read-out: Survival Rate50
Experimental: (3) The cells which were incubated for 24 hours by the same manner as in Example 9-(2) were stained with 0.4% Trypan Blue and observed under an optical microscope, numbers of viable cells which were not stained and of dead cells which were stained in blue were measured, concentration (survival rate50) of each of the samples where survival rate becomes 50% was determined and the result is given in Table 1.

human IL-1α = test: cytokine production in DSEK cells, ELISA; type: cell-based; conditions: DSEK cell incubation, supernatant every 24 hours
Experimental: Now, in the DSEK cell incubation, 150 μl/well of the supernatant liquid of the medium were recovered every 24 hours and influence of 4-hydroxy-2-cyclopenten-1-one or 4,5-dihydroxy-2-pentenal on the production of cytokines (human TGF-β, human FGF-β, human IL-1α and human IL-10) was measured using an ELISA-kit specific to each of the cytokine (the kit manufactured by INTERGEN or human FGF-β and human IL-10; and the kit manufactured by Promega for human IL-1α and human TGF-β).

SMILES	apoptosis-inducing activity / cancer cell growth suppressing activity [1]	apoptosis-inducing activity / cancer cell growth suppressing activity ([1]; listed as fraction 4)	cancer cell growth suppressing activity and apoptic body formation [1]	final concentration at which aggregation of nuclei, reduction in size of the cells and formation of apoptic body were confirmed (HL-60 cells [2]) [µM]	IC50 (HL-60 cells [3]) [µM]	production of human IL-1α (human IL-1α)	concentration of dried product showing deformation and apoptic body formation in the cells ([1]; HL-60, MTT assay)
O=CC=CC(O)CO (single isomer, unassigned) [4,5-dihydroxy-2-pentenal, trans-4,5-dihydroxy-2-pentenal]	strong	strong activity	strong activity	≥ 1	124	activated	–
O=C/C=C/C1COC(/C=C/C(O)CO)O1 (stereo not drawn) [2-(trans-3,4-dihydroxy-1-butenyl)-4-(trans-2-formylvinyl)-1,3-dioxolane]	–	–	noted	≥ 80	74.4	activated	–
Nc1nc2c(ncn2C2C=CC(=O)C2)c(=O)[nH]1 (centres unmarked) [4-(9-guaninyl)-2-cyclopenten-1-one]	–	–	–	≥ 39	67.9	activated	about 13 μg/ml
O=C1C=CC(O)C1 (centres unmarked) [4-hydroxy-2-cyclopenten-1-one]	–	–	strong activity	–	25.5	inhibited	–
